Measurements from US20230159509A1 (Amathus Therapeutics, Inc., priority 2020, published 2023).

Each molecule was assayed against T1, TRAP1 enzyme (Homo sapiens, UniProt Q12931) (assay: ADP Glo assay of TRAP1 ATPase activity). Settings: 1 h; compound concentration 50 μM; read-out: ADP-Glo Percent Activation at 50 μM.
T1 construct: 150 nM Trap1 enzyme was incubated with various concentrations of the test compound
T1 sequence (Q12931 60-704): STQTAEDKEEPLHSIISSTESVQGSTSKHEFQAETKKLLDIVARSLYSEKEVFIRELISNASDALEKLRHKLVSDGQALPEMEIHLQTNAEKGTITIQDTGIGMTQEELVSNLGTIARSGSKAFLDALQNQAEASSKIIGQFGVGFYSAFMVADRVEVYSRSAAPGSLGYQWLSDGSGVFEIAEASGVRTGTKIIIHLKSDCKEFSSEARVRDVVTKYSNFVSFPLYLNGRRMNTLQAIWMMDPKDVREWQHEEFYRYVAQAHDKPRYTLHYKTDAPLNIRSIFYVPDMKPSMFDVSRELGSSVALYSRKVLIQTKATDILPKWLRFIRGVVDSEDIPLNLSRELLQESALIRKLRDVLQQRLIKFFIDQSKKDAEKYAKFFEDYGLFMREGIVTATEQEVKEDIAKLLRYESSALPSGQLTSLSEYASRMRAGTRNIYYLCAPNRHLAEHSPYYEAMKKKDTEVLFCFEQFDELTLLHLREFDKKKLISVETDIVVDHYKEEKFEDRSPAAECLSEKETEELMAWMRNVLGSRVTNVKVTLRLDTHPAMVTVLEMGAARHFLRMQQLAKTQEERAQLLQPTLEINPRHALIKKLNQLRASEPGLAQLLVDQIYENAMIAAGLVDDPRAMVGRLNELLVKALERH
Type: biochemical
Procedure, shortened: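 ADP-Glo luminescence quantifying ADP from 150 nM TRAP1 preincubated 30 min at 37° C with compound (0.79–100 μM), then 20 μM ATP for 60 min at 37° C. Buffer: 25 mM Pipes pH 7.5, 40 mM KCl, 0.05 mM MgCl2, EGTA, BSA, detergents. ADP from ATP/ADP standard curve; Emax and EC50 from sigmoidal fit.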

Compound | activation at 50 µM
COc1ncc(NC(=O)c2ccc(CNC(C)=O)cc2)cc1S(=O)(=O)Nc1c(C)cccc1C [compound 2682] | 151 to 180%
COc1ncc(NC(=O)c2ccc(NC(C)=O)c(C)c2)cc1S(=O)(=O)Nc1c(C)cccc1C [compound 2688] | 151 to 180%
COc1ncc(NC(=O)c2cc(C(C)C)on2)cc1S(=O)(=O)Nc1c(C)cccc1C [compound 2689] | 181 to 352%
CCc1cc(C(=O)Nc2cnc(OC)c(S(=O)(=O)Nc3c(C)cccc3C)c2)no1 [compound 2690] | 151 to 180%
CCn1nc(C(=O)Nc2cnc(OC)c(S(=O)(=O)Nc3c(C)cccc3C)c2)cc1C [compound 2691] | 181 to 352%
COc1ncc(NC(=O)c2onc3c2CCCC3)cc1S(=O)(=O)Nc1c(C)cccc1C [compound 2693] | 120 to 150%
COc1ncc(NC(=O)c2cccc(NC(C)=O)c2)cc1S(=O)(=O)Nc1c(C)cccc1C [compound 2696] | 181 to 352%
COc1ncc(NC(=O)c2coc(C(C)C)n2)cc1S(=O)(=O)Nc1c(C)cccc1C [compound 2697] | 181 to 352%
COc1ncc(NC(=O)c2ccc(NC(=O)C(C)(C)C)cc2)cc1S(=O)(=O)Nc1c(C)cccc1C [compound 2699] | 151 to 180%
COc1ncc(NC(=O)c2cnn(C3CCCCC3)c2)cc1S(=O)(=O)Nc1c(C)cccc1C [compound 2700] | 181 to 352%
COc1ncc(NC(=O)c2n[nH]c3c2CCC3)cc1S(=O)(=O)Nc1c(C)cccc1C [compound 2701] | 181 to 352%
COc1ncc(NC(=O)c2nn(C)c(C)c2Cl)cc1S(=O)(=O)Nc1c(C)cccc1C [compound 2710] | 181 to 352%
CCc1oncc1C(=O)Nc1cnc(OC)c(S(=O)(=O)Nc2c(C)cccc2C)c1 [compound 2711] | 120 to 150%
COc1ncc(NC(=O)c2cccc(CN3CCN(C)CC3)c2)cc1S(=O)(=O)Nc1c(C)cccc1C [compound 2715] | 120 to 150%
COc1ncc(NC(=O)c2cccc3c2C(=O)NC3)cc1S(=O)(=O)Nc1c(C)cccc1C [compound 2719] | 151 to 180%
COc1ncc(NC(=O)c2noc3c2CCCC3)cc1S(=O)(=O)Nc1c(C)cccc1C [compound 2725] | 181 to 352%
CCCc1onc(C)c1C(=O)Nc1cnc(OC)c(S(=O)(=O)Nc2c(C)cccc2C)c1 [compound 2726] | 181 to 352%
COc1ncc(NC(=O)c2ccnc(N3CCCCC3)c2)cc1S(=O)(=O)Nc1c(C)cccc1C [compound 2729] | 181 to 352%
COc1ncc(NC(=O)c2cc3[nH]c(=O)[nH]c(=O)n3c2)cc1S(=O)(=O)Nc1c(C)cccc1C [compound 2732] | 151 to 180%

Compound | activation at 50 µM
COc1ncc(NC(=O)c2nnsc2C(C)C)cc1S(=O)(=O)Nc1c(C)cccc1C [compound 2734] | 181 to 352%
COc1ncc(NC(=O)c2cc[nH]c3nccc2-3)cc1S(=O)(=O)Nc1c(C)cccc1C [compound 2735] | 181 to 352%
COc1ncc(NC(=O)c2n[nH]c3c2CCCC3)cc1S(=O)(=O)Nc1c(C)cccc1C [compound 2736] | 181 to 352%
COc1ncc(NC(=O)c2cnn3c2SCC3)cc1S(=O)(=O)Nc1c(C)cccc1C [compound 2740] | 181 to 352%
COc1ncc(NC(=O)c2ccc(N3CCN(C)CC3)c(F)c2)cc1S(=O)(=O)Nc1c(C)cccc1C [compound 2742] | 181 to 352%
COc1ncc(NC(=O)c2coc(C3CCCCC3)n2)cc1S(=O)(=O)Nc1c(C)cccc1C [compound 2743] | 151 to 180%
COc1ncc(NC(=O)c2ccnc(N3CCOCC3)c2)cc1S(=O)(=O)Nc1c(C)cccc1C [compound 2744] | 181 to 352%
COc1ncc(NC(=O)c2ccc(C3CCN(C)CC3)cc2)cc1S(=O)(=O)Nc1c(C)cccc1C [compound 2745] | 151 to 180%
COc1ncc(NC(=O)c2ccc(NC(C)=O)cc2)cc1S(=O)(=O)Nc1c(C)cccc1C [compound 2746] | 181 to 352%
COc1ncc(NC(=O)c2cc(OC)n(C)n2)cc1S(=O)(=O)Nc1c(C)cccc1C [compound 2747] | 151 to 180%
CCn1cc(C(=O)Nc2cnc(OC)c(S(=O)(=O)Nc3c(C)cccc3C)c2)cn1 [compound 2750] | 120 to 150%
COc1ncc(NC(=O)c2ccc(CN3CCCC3)cc2)cc1S(=O)(=O)Nc1c(C)cccc1C [compound 2751] | 120 to 150%
CCc1noc(C)c1C(=O)Nc1cnc(OC)c(S(=O)(=O)Nc2c(C)cccc2C)c1 [compound 2752] | 120 to 150%
COc1ncc(NC(=O)c2cn(C(C)(C)C)nn2)cc1S(=O)(=O)Nc1c(C)cccc1C [compound 2755] | 151 to 180%
COc1ncc(NC(=O)c2nnsc2C2CC2)cc1S(=O)(=O)Nc1c(C)cccc1C [compound 2758] | 151 to 180%
COc1ncc(NC(=O)c2cccnc2N2CCOCC2)cc1S(=O)(=O)Nc1c(C)cccc1C [compound 2759] | 181 to 352%
COc1ncc(NC(=O)c2ccc(NS(C)(=O)=O)cc2)cc1S(=O)(=O)Nc1c(C)cccc1C [compound 2761] | 181 to 352%
COc1ncc(NC(=O)c2cnn(C)c2OC)cc1S(=O)(=O)Nc1c(C)cccc1C [compound 2762] | 120 to 150%

Next, values leading:

activation at 50 µM | Compound
120 to 150% | COc1ncc(NC(=O)c2csc(C(F)(F)F)c2)cc1S(=O)(=O)Nc1c(C)cccc1C [compound 2683]
120 to 150% | COc1ncc(NC(=O)c2cnn(CC(F)(F)F)c2)cc1S(=O)(=O)Nc1c(C)cccc1C [compound 2684]
151 to 180% | COc1ncc(NC(=O)c2nsnc2Cl)cc1S(=O)(=O)Nc1c(C)cccc1C [compound 2687]
120 to 150% | COc1ncc(NC(=O)c2nc(C)oc2C)cc1S(=O)(=O)Nc1c(C)cccc1C [compound 2692]
181 to 352% | COc1ncc(NC(=O)c2sccc2C(F)(F)F)cc1S(=O)(=O)Nc1c(C)cccc1C [compound 2694]
151 to 180% | COc1ncc(NC(=O)c2cc(C(F)(F)F)n[nH]2)cc1S(=O)(=O)Nc1c(C)cccc1C [compound 2695]
120 to 150% | COc1ncc(NC(=O)c2csnc2C)cc1S(=O)(=O)Nc1c(C)cccc1C [compound 2703]
120 to 150% | COc1ncc(NC(=O)c2conc2C)cc1S(=O)(=O)Nc1c(C)cccc1C [compound 2706]
120 to 150% | COc1ncc(NC(=O)c2oncc2C)cc1S(=O)(=O)Nc1c(C)cccc1C [compound 2708]
120 to 150% | COc1ncc(NC(=O)c2ccn[nH]2)cc1S(=O)(=O)Nc1c(C)cccc1C [compound 2709]
120 to 150% | COc1ncc(NC(=O)c2ncco2)cc1S(=O)(=O)Nc1c(C)cccc1C [compound 2712]
181 to 352% | COc1ncc(NC(=O)c2cnn(C)c2C(F)F)cc1S(=O)(=O)Nc1c(C)cccc1C [compound 2713]
181 to 352% | CCCc1nnsc1C(=O)Nc1cnc(OC)c(S(=O)(=O)Nc2c(C)cccc2C)c1 [compound 2714]
181 to 352% | COc1ncc(NC(=O)c2cc(C)sn2)cc1S(=O)(=O)Nc1c(C)cccc1C [compound 2716]
151 to 180% | COc1ncc(NC(=O)c2ncoc2C)cc1S(=O)(=O)Nc1c(C)cccc1C [compound 2718]
181 to 352% | COc1ncc(NC(=O)c2snnc2C2CC2)cc1S(=O)(=O)Nc1c(C)cccc1C [compound 2720]
120 to 150% | COc1ncc(NC(=O)c2cn[nH]c2C)cc1S(=O)(=O)Nc1c(C)cccc1C [compound 2724]
181 to 352% | COc1ncc(NC(=O)c2ccc3c(c2)NC(=O)C3)cc1S(=O)(=O)Nc1c(C)cccc1C [compound 2727]
181 to 352% | COc1ncc(NC(=O)c2cc(Cl)n[nH]2)cc1S(=O)(=O)Nc1c(C)cccc1C [compound 2730]
120 to 150% | COc1ncc(NC(=O)c2[nH]cnc2C)cc1S(=O)(=O)Nc1c(C)cccc1C [compound 2731]
151 to 180% | COc1ncc(NC(=O)c2ocnc2C)cc1S(=O)(=O)Nc1c(C)cccc1C [compound 2733]
120 to 150% | COc1ncc(NC(=O)c2cnc(N(C)C)nc2)cc1S(=O)(=O)Nc1c(C)cccc1C [compound 2737]
151 to 180% | COc1ncc(NC(=O)c2cc(C)on2)cc1S(=O)(=O)Nc1c(C)cccc1C [compound 2738]
120 to 150% | COc1ncc(NC(=O)c2ccon2)cc1S(=O)(=O)Nc1c(C)cccc1C [compound 2741]
151 to 180% | COc1ncc(NC(=O)c2cc(C)[nH]n2)cc1S(=O)(=O)Nc1c(C)cccc1C [compound 2749]
120 to 150% | COc1ncc(NC(=O)c2ncc[nH]2)cc1S(=O)(=O)Nc1c(C)cccc1C [compound 2753]
120 to 150% | COc1ncc(NC(=O)c2cc(C)no2)cc1S(=O)(=O)Nc1c(C)cccc1C [compound 2754]
151 to 180% | COc1ncc(NC(=O)c2n[nH]cc2C)cc1S(=O)(=O)Nc1c(C)cccc1C [compound 2756]
